Results from patent publication US20240065982A1 (priority 2020, published 2024).

Test: Clearance of ionizable lipid from the mouse lung following chamber nebulization of mRNA LNP (LC-MS)
Assay type: in vivo
Procedure: On the day of dosing the LNP formulations were diluted to 1.2 mg/mL with PBS and 1.25 mL (1.5 mg dose) of these solutions are placed in Aerogen Solo nebulizer units which sit in a housing attached to a mouse chamber of dimensions 9″×4″×5″ (1×w×h) with a carbon filter attached. Six (6) Balb/C mice are dosed in the chamber at a time. An airflow of 1.5 L/min was forced through the nebulizer housing unit and the nebulizer turned on. During nebulization, some of the LNP condensed from the nebulizer and was collected and passed back through the nebulizer. This continued until no condensate was collected. Upon nebulization to dryness, the mice remained in the chamber for an extra 1-2 min until the LNP vapor dissipated. Complete nebulization of the LNP typically took ˜15 min. At each time points of 0.25 h (immediately after nebulization), 1 h, 6 h and 24 h, three (3) animals per formulation were euthanized with a lethal dosage of ketamine/xylazine and the lungs were excised and cut into ˜100 mg sections. These were placed in FastPrep tubes, fast frozen in liquid N2, and stored at […] until LC-MS analysis.
To the lung sections were added 5 volumes of PBS (e.g. to 50 mg of lung added 250 μL of PBS). These were then homogenized in a FastPrep instrument using 3 cycles of 15 sec each, with a speed of 5.0 m/s and were centrifuged at low speed. Spiked lung homogenate standards were prepared for each cationic lipid (103, 101 and 102) using the lung homogenates of mice dosed with PBS. For each cationic lipid, 10 standards were prepared: the highest standard at a concentration of 12,500 ng/mL with serial dilution by ½ down to 24.4 ng/mL. 20 μL of the homogenates (samples and standards) was added to 225 μL of ISS (IPA containing 100 ng/mL 1-B11 internal standard) in 96-well plates. The plates were mixed by pipetting up and down and were centrifuged at 2500 rpm for 15 min. The supernatant from these extractions were analyzed by LC-MS. By comparing the signal obtained for each sample to the appropriate standard curves for each cationic lipid (103, 101 and 102), the ng/mL of cationic lipid in each homogenate was determined. These values were then normalized to the exact mass of lung tissue that was analyzed. For the Non-biodegradable cationic lipid, the resulting average (n=3) ng 103/g of lung values were plotted without any further manipulation. For the Hydrolyzable cationic lipid, the ng/g of lung values at each time point for both 101 and 102 were combined to give the average (n=3) ng cationic lipid/g of lung values.

[1] = 24 h post administration, nebulized mRNA LNP, mice

## CCCCC/C=C\CCCO[Si](CCCCN(C)C)(OCCC/C=C\CCCCC)OCCC/C=C\CCCCC [Example 101]
[1]
  fate of the lipid in the lungs by 24 h, in words: close to complete lipid hydrolysis

## CCCCC/C=C\CCCO[Si](CCCCN(C)CCO)(OCCC/C=C\CCCCC)OCCC/C=C\CCCCC [Example 102]
[1]
  fate of the lipid in the lungs by 24 h, in words: close to complete lipid hydrolysis

## CCCCC/C=C\CCCC(CCC/C=C\CCCCC)C(CCC/C=C\CCCCC)OC(=O)CCCCN(C)C (stereo not shown) [Example 103]
Balb/C, mouse, in vivo
  % Cationic Lipid Remaining: 100%
Balb/C, mouse, in vivo, 1 h
  % Cationic Lipid Remaining: 120%
Balb/C, mouse, in vivo, 6 h
  % Cationic Lipid Remaining: 90%
Balb/C, mouse, in vivo, 24 h
  % Cationic Lipid Remaining: 94%
  fate of the lipid in the lungs by 24 h, in words: remained in the lungs for the complete 24 h
